Laboratory results taken from US20250289850A1, “NOVEL ANTIMICROBIAL PEPTIDES AND METHODS OF USE THEREOF” (QATAR UNIVERSITY, priority 2024, published 2025).
Converted amounts (≈) assume the structure as drawn. Read-outs that look alike come from different tables or passages of the source. Where a SMILES comes first, the peptide text is derived from it.

What was measured:
MRSA (ATCC-33591) = format: cell-based, Methicillin-Resistant Staphylococcus Aureus
Protocol: (§1) MRSA and E. coli strains were acquired from the microbiology bacterial culture stock at the Biomedical Research Centre (BRC), Qatar University. MRSA (ATCC-33591) and E. coli (ATCC-29522) strains were cultivated overnight on nutrient agar (Remel, ThermoFisher Scientific, Lenexa, KS, USA), followed by a 24 hour period of incubation at 37° C. and adjustment to 0.5 MacFarland Standard, which was measured using DensiCHEK PLUS (bioMérieux, France).
(§2) Minimal Inhibitory Concentration (MIC) of AMP MRSA and E. coli was determined as follows. […] serial dilutions of AMP starting from 2000 μg/ml of 160 μL Mueller Hinton broth (MHB, Lioflchem, Roseto degli Abruzzi, Italy) were transferred to the wells (100 μl each) in a 96-well flat-bottom plate (Microtesttm 96 tissue culture plate, Franklin Lakes, NJ, USA) to get concentrations of 2000, 1000, 500, 250, 125, 62.5, 31.25, 15.6, and 7.8 μg/mL. Then, 10 μL of 0.5 MacFarland for each type (MSRA and/or E. coli) of the measured strain was added to each well. To assure sterilization, the 96-well plate contained wells with MHB control, MHB with AMP treatment control, and controls for the bacterial strain mixed with MHB to guarantee bacterial growth. 96-well plates were then sealed tightly with a parafilm and placed in an aerobic shaker (Innova 44 Incubator Shaker) for 24 hours at 37° C. at a speed of 100 rpm. After this, the MIC of the treatment that effectively eliminated bacterial growth was determined with the naked eye following previously established procedure as described in Eltai N O et al., Antibacterial and Antibiofilm Activity of Mercaptophenol Functionalized-Gold Nanorods Against a Clinical Isolate of Methicillin-Resistant Staphylococcus aureus. […]
(§3) To determine the minimum biocidal concentration ([…]) for the AMP, 20 μL of a ten-fold serial dilution of the MIC with AMP was spread onto fresh nutrient agar media and incubated at 37° C. for around 18 hrs. Bacterial colonies were counted and compared to those grown on control nutrient agar, which had 20 μL of a solution composed only of bacteria and MHB.

E. coli (ATCC-29522) = format: cell-based, Escherichia coli
Protocol: as §1, §2, §3

MRSA biofilm = format: cell-based, Methicillin-Resistant Staphylococcus Aureus
Protocol: The first step in creating the biofilm was the selection of borosilicate glass beads 3-4 mm in diameter (ISOLAB Laborgeräte GmbH, Singapore). Then, the selected beads were soaked and cleaned with a soap solution; after that, they were washed with ddH2O, soaked in 80% ethanol for 24 hrs, and then washed properly using sterile water. Bacteria were then grown on these beads to create the biofilm by taking 20 μL of 0.5 McFarland from the bacterial strains (either MRSA or E. Coli), adding it to 200 μL of nutrient broth in 96-well flat-bottom plates, and placing one bead in cach well. 96-well plates were then sealed tightly with a parafilm and placed in an acrobic shaker (Innova 44 Incubator Shaker) for 72 hours at 37° C. at a speed of 100 rpm. Every 24 hours, 200 μL of fresh media was added to replace the consumed media. The beads were then placed in an Eppendorf tube containing 200 μL of nutrient broth and vortexed for 1 min to loosen any attached bacteria. This step was repeated after 24, 48, and 72 hours to observe the density of the biofilm formed on the beads. Then, 100 μL of the solution was serially diluted over ten-fold serial dilutions, and 20 μL of the serial dilution was spread onto fresh nutrient agar media and incubated at 37° C. for 18 hours. Biofilm colonies were then counted. Generated biofilms were used to investigate the selected AMP's ability to inhibit the MRSA and E. coli biofilms.
(§4) The antibiofilm activity of AMP on 72 hours biofilm cultures was tested by treating the biofilm beads with 2000, 1000, 500, 250, 125, and 62.5 μg/mL concentrations of the selected AMP in 96-well plates. Plates were then tightly sealed with a parafilm and placed in an acrobic shaker (Innova 44 Incubator Shaker) for 72 hours at 37° C. at a speed of 100 rpm. The antibiofilm activity of the AMP was determined after observing the wells that contained a transparent solution with the naked eye. Subsequently, the antibiofilm activity of the selected AMP was determined using SEM, as described below. […]

E. coli biofilm = format: cell-based, Escherichia coli
Protocol: The first step in creating the biofilm was the selection of borosilicate glass beads 3-4 mm in diameter (ISOLAB Laborgeräte GmbH, Singapore). Then, the selected beads were soaked and cleaned with a soap solution; after that, they were washed with ddH2O, soaked in 80% ethanol for 24 hrs, and then washed properly using sterile water. Bacteria were then grown on these beads to create the biofilm by taking 20 μL of 0.5 McFarland from the bacterial strains (either MRSA or E. Coli), adding it to 200 μL of nutrient broth in 96-well flat-bottom plates, and placing one bead in cach well. 96-well plates were then sealed tightly with a parafilm and placed in an acrobic shaker (Innova 44 Incubator Shaker) for 72 hours at 37° C. at a speed of 100 rpm. Every 24 hours, 200 μL of fresh media was added to replace the consumed media. […] Biofilm colonies were then counted. […]
as §4, with “Plates were then tightly sealed with a parafilm and placed in an acrobic shaker (Innova 44 Incubator Shaker) for 72 hours at 37° C. at a speed of 100 rpm.” left out

[1] = system: Human Fibroblasts (ATCC PCS201010); format: cell-based
Protocol: The cytotoxicity and genotoxicity in vitro effect of the AMP was investigated. Human Fibroblasts (ATCC PCS201010, ThermoFischer Scientific, USA) and cells were seeded at a seeding density of 10,000 Cells/well in 96-well plates using Dulbecco's Modified Eagle Medium (DMEM, Gibco, USA). Media was supplemented with 10% Fetal bovine serum (FBS, Gibco, USA), and penicillin streptomycin (Gibco, USA). Cells were incubated overnight (16-18 hrs) at humidified conditions (5% CO2, 37° C.). Adherent cells were then treated with different concentrations of the AMP (7.8125, 15.625, 62.5, 125, 250, 500, 1000, 2000 μg/ml), and cells were then incubated at humidified conditions for 24 hrs. Then conditioned media was collected at different time points 0, 0.5, 1, 3, 6, 24 hours) and used for measuring Lactate Dehydrogenase (LDH, Thermofischer, USA) following manufacturers' instructions. Adherent cells were used to measure cell viability using AlamarBlue (Invitrogen, USA) following manufacturers' instructions at the following time points 0, 0.5, 1, 3, 6, and 24 hours.

human fibroblast cells = test: Genotoxicity, oxiselect comet assay; format: cell-based
Protocol: The genotoxicity effect of the selected AMP was also investigated. In this part, human fibroblast cells were cultured in 24-well plates at a seeding density of 100,000 cells/well; cells were then allowed to adhere and proliferate overnight (16-18 hours). The following day, cells were treated with the AMP (1000 and 2000 μg/ml; negative and positive controls were included in this part, and cells were treated with DMEM and H2O2, respectively. After which, cells were incubated at humidified conditions for 24 hours. Following that, the genotoxicity effect of the AMP was measured using oxiselect comet assay (Abcam, UK) and following the manufacturer's instructions. Images were taken using OLYMPUS BX62, at magnification 40×, attached to an OLYMPUS DP73 digital camera. Image analysis was done using the ImageJ application (OpenComet plugin).

SMILES	MBC (MRSA (ATCC-33591); ATCC-33591, 24 h) [µg/mL]	antibacterial effect (MRSA (ATCC-33591); MRSA, 2000, 1000 μg/ml AMP, 24 hours)	minimum inhibitory (MIC) (MRSA (ATCC-33591); MRSA, 24 hours, 37° C., read with the naked eye) [µg/mL]	MBC (E. coli (ATCC-29522); ATCC-29522, 24 h) [µg/mL]	antibacterial effect (E. coli (ATCC-29522); E. coli, 2000, 1000 μg/ml AMP, 24 hours)	minimum inhibitory (MIC) (E. coli (ATCC-29522); E. coli, 24 hours, 37° C., read with the naked eye) [µg/mL]	antibiofilm effect (MRSA biofilm; MRSA biofilm, 2000, 1000 μg/ml AMP)	antibiofilm effect (MRSA biofilm; MRSA biofilm, highest dose 2000 μg/ml AMP)	MIC/MBC in biofilm (MRSA biofilm; biofilm, 72 h) [µg/mL]	antibiofilm effect (E. coli biofilm; E. coli biofilm, only the highest concentration 2000 μg/ml AMP)	MIC/MBC in biofilm (E. coli biofilm; biofilm, 72 h) [µg/mL]	cellular cytotoxicity (LDH) [1]	genotoxicity (tail moment) (human fibroblast cells)	comet tail / DNA migration (human fibroblast cells; human fibroblasts, AMP 2000, 500 μg/ml (figure legend), positive control H2O2)
CC(C)C[C@H](NC(=O)[C@H](CCCNC(=N)N)NC(=O)[C@H](CCCNC(=N)N)NC(=O)[C@H](CCCNC(=N)N)NC(=O)[C@H](Cc1ccccc1)NC(=O)CNC(=O)[C@H](CCCNC(=N)N)NC(=O)[C@H](CS)NC(=O)[C@H](CCCNC(=N)N)NC(=O)CNC(=O)CNC(=O)[C@H](CS)NC(=O)[C@H](Cc1ccccc1)NC(=O)[C@H](C)N)C(=O)N[C@@H](Cc1ccccc1)C(=O)N[C@@H](CS)C(=O)N[C@H](C(=O)N[C@@H](CCCCN)C(=O)N[C@@H](C)C(=O)N[C@@H](CS)C(=O)O)[C@@H](C)O [AMP] (H-AFCGGRCRGFRRRLFCTKAC-OH; N-terminus and C-terminus assumed)	1000 (≈ 433 µM)	biocidal effect	500	1000 (≈ 433 µM)	biocidal effect	500	eliminate the MRSA biofilm	totally inhibiting the MRSA biofilm growth	1000 (≈ 433 µM)	inhibit the E. coli biofilm	2000 (≈ 866 µM)	no cellular cytotoxicity was detected	no significant effect	
OO [H2O2, reference compound]														extensive DNA migration
